Data on 23 compounds can be found in patent US20230192700A1, “PYRAZOLOPYRAZINES ACTING ON CANCERS VIA INHIBITION OF CDK12” (Bayer Aktiengesellschaft, priority 2020, published 2023).

pIC50: −log10 of the molar value. Bounds are passed on as bounds.

T1 sequence (Q9NYV4 with tags, fused parts or gaps): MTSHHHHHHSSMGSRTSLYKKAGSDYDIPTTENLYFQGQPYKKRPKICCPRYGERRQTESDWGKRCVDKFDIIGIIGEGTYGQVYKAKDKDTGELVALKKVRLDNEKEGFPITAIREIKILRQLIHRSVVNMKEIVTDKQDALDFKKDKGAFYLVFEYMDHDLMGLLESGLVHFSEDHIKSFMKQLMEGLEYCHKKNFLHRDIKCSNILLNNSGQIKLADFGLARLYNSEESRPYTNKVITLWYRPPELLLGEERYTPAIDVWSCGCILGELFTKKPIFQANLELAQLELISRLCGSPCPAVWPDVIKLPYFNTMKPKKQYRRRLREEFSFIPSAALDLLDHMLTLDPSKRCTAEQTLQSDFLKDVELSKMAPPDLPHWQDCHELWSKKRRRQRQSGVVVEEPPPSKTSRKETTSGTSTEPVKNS
T1 sequence (O75909 with tags, fused parts or gaps partner limits assumed): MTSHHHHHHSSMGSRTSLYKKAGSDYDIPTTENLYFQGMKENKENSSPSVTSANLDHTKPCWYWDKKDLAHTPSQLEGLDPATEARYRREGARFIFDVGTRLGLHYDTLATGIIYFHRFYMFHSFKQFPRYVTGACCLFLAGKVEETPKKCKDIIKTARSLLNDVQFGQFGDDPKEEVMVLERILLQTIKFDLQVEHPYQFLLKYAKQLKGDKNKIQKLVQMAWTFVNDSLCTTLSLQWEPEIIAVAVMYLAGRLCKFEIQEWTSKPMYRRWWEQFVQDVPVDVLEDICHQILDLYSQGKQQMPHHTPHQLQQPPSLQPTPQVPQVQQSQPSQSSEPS

This test addresses T1, CDK12/CyclinK (Homo sapiens, UniProt Q9NYV4).
T1 construct: His-CDK12 (aa Q696-S1082); made in house; host or cells: Hi-5 insect cells (baculovirus co-infection with CycK and yeast CAK1)
The experiment in a line: CDK12/CycK high ATP kinase assay (TR-FRET). The format is biochemical. The following applies: 2 mM ATP (high ATP); median; read-out: CDK12/CyclinK, 2 mM ATP (high ATP), IC50 - [mol/l] (median). The text has this:
2.2 CDK12/CycK high ATP Kinase Assay
In the context of the present invention, the term “IC50 CDK12 hATP” refers to the ICso values obtained according to the assay described in this section (2.2) herein below, i.e. the IC50 values for the inhibition of CDK12 at high ATP.
CDK12/CycK -inhibitory activity of compounds of the present invention at 2 millimol/L adenosine-tri-phosphate (ATP) was quantified employing the TR-FRET (TR-FRET=Time Resolved Fluorescence Energy Transfer) based CDK12/CycK activity inhibition assay as described in the following paragraphs.
A complex of human recombinant CDK12 and human recombinant CycK (both N-terminally His-tagged, expression and purification as described above) was used as enzyme. As substrate for the kinase reaction biotinylated peptide biotin-Ahx-KFELLPTPPLSPSRRSGL (C-terminus in amid form) was used which can be purchased e.g. form the company Biosyntan (Berlin-Buch, Germany).
For the assay 50 nanoL of a 100 fold concentrated solution of the test compound in DMSO was pipetted into either a black low volume 384 well microtiter plate or a black 1536 well microtiter plate (both Greiner Bio-One, Frickenhausen, Germany), 2 microL of a solution of CDK12/CycK in aqueous assay buffer [25 millimol/L HEPES pH 7.5, 20 millimol/L MgCl2, 5 millimol/L β-glycerophosphate, 2 millimol/L EGTA, 1.0 millimol/L dithiothreitol, 0.01% (v/v) Nonidet-P40 (Sigma), 0.01% (w/v) bovine serum albumin] were added and the mixture was incubated for 15 min at 22° C. to allow pre-binding of the test compounds to the enzyme before the start of the kinase reaction. Then the kinase reaction was started by the addition of 3 microL of a solution ATP (3.33 millimol/L=>final conc. in the 5 microL assay volume is 2 millimol/L) and substrate (1.67 micromol/L=>final conc. in the 5 microL assay volume is 1 micromol/L) in assay buffer and the resulting mixture was incubated for a reaction time of 60 min at 22° C. The concentration of CDK12/CycK was adjusted depending of the activity of the enzyme lot and was chosen appropriate to have the assay in the linear range, typical concentrations were about 0.75 nanomol/L. The reaction was stopped by the addition of 3 microL of a solution of TR-FRET detection reagents (125 nanomol/L streptavidine-XL665 [Cisbio Bioassays, Codolet, France] and 0.67 nanomol/L anti-Phospho-c-Myc (Ser 62) (E1J4K)-antibody from Cell Signalling [#13748] and 2 nanomol/L LANCE EU-W1024 labeled anti-rabbit IgG antibody [Perkin-Elmer, product no. 0083]) in an aqueous EDTA-solution (133 millimol/L EDTA, 0.27% (w/v) bovine serum albumin in 66.7 millimol/L HEPES pH 7.5).
The resulting mixture was incubated 1 h at 22° C. to allow the formation of complex between the phosphorylated biotinylated peptide and the detection reagents. Subsequently the amount of phosphorylated substrate was evaluated by measurement of the resonance energy transfer from the Eu-chelate to the streptavidine-XL. Therefore, the fluorescence emissions at 620 nm and 665 nm after excitation at 350 nm was measured in a TR-FRET reader, e.g. a Pherastar FS (BMG Labtechnologies, Offenburg, Germany) or a Viewlux (Perkin-Elmer). The ratio of the emissions at 665 nm and at […] was taken as the measure for the amount of phosphorylated substrate. The data were normalised (enzyme reaction without inhibitor=0% inhibition, all other assay components but no enzyme=100% inhibition).
On the technique in general: In TR-FRET formats the signal depends on donor and acceptor labels being close together.
In the case of `CN1CCC(n2nc(NCc3nc4cc(Cl)c(F)cc4[nH]3)c3ncc(C4CC4)nc32)CC1` [Example 29, N-[(5-chloro-6-fluoro-1H-benzimidazol-2-yl)methyl]-6-cyclopropyl-1-(1-methylpiperidin-4-yl)-1H-pyrazolo[3,4-b]pyrazin-3-amine], the pIC50 was less than 4.70.
Take `O[C@H]1CC[C@@H](n2nc(NCc3nc4ccccc4[nH]3)c3ncc(C4CC4)nc32)CC1` [Example 51, cis-4-(3-{[(1H-benzimidazol-2-yl)methyl]amino}-6-cyclopropyl-1H-pyrazolo[3,4-b]pyrazin-1-yl)cyclohexan-1-ol]: the pIC50 is less than 4.70.
Regarding `CN1CCCC(n2nc(NCc3nc4ccccc4[nH]3)c3ncc(C4CC4)nc32)CC1` (single isomer, unassigned) [Example 38, (−) or (+)-N-[(1H-benzimidazol-2-yl)methyl]-6-cyclopropyl-1-[(4R*)-1-methylazepan-4-yl]-1H-pyrazolo[3,4-b]pyrazin-3-amine], the pIC50 was less than 4.70.
For `Cc1ccc2[nH]c(CNc3nn(C4CCN(C)CC4)c4nc(C5CC5)cnc34)nc2c1C` [Example 28, 6-cyclopropyl-N-[(4,5-dimethyl-1H-benzimidazol-2-yl)methyl]-1-(1-methylpiperidin-4-yl)-1H-pyrazolo[3,4-b]pyrazin-3-amine], the pIC50 was less than 4.70.
For `O[C@H]1C[C@@H](n2nc(NCc3nc4ccccc4[nH]3)c3ncc(C4CC4)nc32)C1` [Example 40, cis-3-(3-{[(1H-benzimidazol-2-yl)methyl]amino}-6-cyclopropyl-1H-pyrazolo[3,4-b]pyrazin-1-yl)cyclobutan-1-ol], the pIC50 was less than 4.70.
Consider `O[C@H]1C[C@@H](Cn2nc(NCc3nc4ccccc4[nH]3)c3ncc(C4CC4)nc32)C1` [Example 71, cis-3-[(3-{[(1H-benzimidazol-2-yl)methyl]amino}-6-cyclopropyl-1H-pyrazolo[3,4-b]pyrazin-1-yl)methyl]cyclobutan-1-ol], for which the pIC50 was less than 4.70.
For the compound `c1ccc2[nH]c(CNc3nn(C4CCNCC4)c4nc(C5CC5)cnc34)nc2c1` [Example 12, N-[(1H-benzimidazol-2-yl)methyl]-6-cyclopropyl-1-(piperidin-4-yl)-1H-pyrazolo[3,4-b]pyrazin-3-amine], the pIC50 was less than 4.70.
Take `O[C@H]1CC[C@H](n2nc(NCc3nc4cc(F)ccc4[nH]3)c3ncc(C4CC4)nc32)CC1` [Example 56, trans-4-(6-cyclopropyl-3-{[(5-fluoro-1H-benzimidazol-2-yl)methyl]amino}-1H-pyrazolo[3,4-b]pyrazin-1-yl)cyclohexan-1-ol]: the pIC50 was less than 4.74.
Regarding `CN1CCC(n2nc(NCc3nc4c(Br)cccc4[nH]3)c3ncc(C4CC4)nc32)CC1` [Example 20, N-[(4-bromo-1H-benzimidazol-2-yl)methyl]-6-cyclopropyl-1-(1-methylpiperidin-4-yl)-1H-pyrazolo[3,4-b]pyrazin-3-amine], the pIC50 was less than 4.70.
Consider `Cn1nc(NCc2nc3ccccc3[nH]2)c2ncc(C3CC3)nc21` [Example 15, N-[(1H-benzimidazol-2-yl)methyl]-6-cyclopropyl-1-methyl-1H-pyrazolo[3,4-b]pyrazin-3-amine], for which the pIC50 is less than 4.70.
Take `Fc1cccc2[nH]c(CNc3nn(C4CCOCC4)c4nc(C5CC5)cnc34)nc12` [Example 23, 6-cyclopropyl-N-[(4-fluoro-1H-benzimidazol-2-yl)methyl]-1-(oxan-4-yl)-1H-pyrazolo[3,4-b]pyrazin-3-amine]: the pIC50 was 4.91.
Take `c1ccc2[nH]c(CNc3nn(C4CCCC4)c4nc(C5CC5)cnc34)nc2c1` [Example 39, N-[(1H-benzimidazol-2-yl)methyl]-1-cyclopentyl-6-cyclopropyl-1H-pyrazolo[3,4-b]pyrazin-3-amine]: the pIC50 is less than 4.70.
Turning to `c1ccc2[nH]c(CNc3nn(C4CCOC4)c4nc(C5CC5)cnc34)nc2c1` (racemic) [Example 10, (±)-N-[(1H-benzimidazol-2-yl)methyl]-6-cyclopropyl-1-[oxolan-3-yl]-1H-pyrazolo[3,4-b]pyrazin-3-amine], the pIC50 is less than 4.70.
For the compound `Cc1c(Cl)ccc2[nH]c(CNc3nn(C4CCN(C)CC4)c4nc(C5CC5)cnc34)nc12` [Example 21, N-[(5-chloro-4-methyl-1H-benzimidazol-2-yl)methyl]-6-cyclopropyl-1-(1-methylpiperidin-4-yl)-1H-pyrazolo[3,4-b]pyrazin-3-amine], the pIC50 is less than 4.70.
Turning to `CN1CCC(n2nc(NCc3nc4c(C(F)(F)F)cccc4[nH]3)c3ncc(C4CC4)nc32)CC1` [Example 7, 6-cyclopropyl-1-(1-methylpiperidin-4-yl)-N-{[4-(trifluoromethyl)-1H-benzimidazol-2-yl]methyl}-1H-pyrazolo[3,4-b]pyrazin-3-amine], the pIC50 was less than 4.70.
Take `OC1(Cn2nc(NCc3nc4ccccc4[nH]3)c3ncc(C4CC4)nc32)CCC1` [Example 72, 1-[(3-{[(1H-benzimidazol-2-yl)methyl]amino}-6-cyclopropyl-1H-pyrazolo[3,4-b]pyrazin-1-yl)methyl]cyclobutan-1-ol]: the pIC50 was less than 5.00.
For the compound `CN1CCC(n2nc(NCc3nc4c(F)cccc4[nH]3)c3ncc(C4CC4)nc32)CC1` [Example 3, 6-cyclopropyl-N-[(4-fluoro-1H-benzimidazol-2-yl)methyl]-1-(1-methylpiperidin-4-yl)-1H-pyrazolo[3,4-b]pyrazin-3-amine], the pIC50 was not above 4.94.
Regarding `CN1CCCC(n2nc(NCc3nc4ccccc4[nH]3)c3ncc(C4CC4)nc32)CC1` (racemic) [Example 34, (±)-N-[(1H-benzimidazol-2-yl)methyl]-6-cyclopropyl-1-(1-methylazepan-4-yl)-1H-pyrazolo[3,4-b]pyrazin-3-amine], the pIC50 is less than 4.70.
The result for `OC1(Cn2nc(NCc3nc4ccccc4[nH]3)c3ncc(C4CC4)nc32)CCCC1` [Example 73, 1-[(3-{[(1H-benzimidazol-2-yl)methyl]amino}-6-cyclopropyl-1H-pyrazolo[3,4-b]pyrazin-1-yl)methyl]cyclopentan-1-ol] reads less than 5.00; that for `Cc1cccc2[nH]c(CNc3nn(C4CCOCC4)c4nc(C5CC5)cnc34)nc12` [Example 33, 6-cyclopropyl-N-[(4-methyl-1H-benzimidazol-2-yl)methyl]-1-(oxan-4-yl)-1H-pyrazolo[3,4-b]pyrazin-3-amine], less than 4.70.
For `Cc1cccc2[nH]c(CNc3nn(C4CCN(C)CC4)c4nc(C5CC5)cnc34)nc12` [Example 8, 6-cyclopropyl-N-[(4-methyl-1H-benzimidazol-2-yl)methyl]-1-(1-methylpiperidin-4-yl)-1H-pyrazolo[3,4-b]pyrazin-3-amine], the pIC50 was less than 4.70.
As for `c1ccc2[nH]c(CNc3nn(C4CCOCC4)c4nc(C5CC5)cnc34)nc2c1` [Example 16, N-[(1H-benzimidazol-2-yl)methyl]-6-cyclopropyl-1-(oxan-4-yl)-1H-pyrazolo[3,4-b]pyrazin-3-amine], the pIC50 is less than 4.70.
With `COc1cccc2[nH]c(CNc3nn(C4CCOCC4)c4nc(C5CC5)cnc34)nc12` [Example 24, 6-cyclopropyl-N-[(4-methoxy-1H-benzimidazol-2-yl)methyl]-1-(oxan-4-yl)-1H-pyrazolo[3,4-b]pyrazin-3-amine], the pIC50 is 4.74.
